Measurements from patent US12528819B2 (priority 2016, dated 2026).
Entries after “also recorded” stand apart in the source; their conditions may differ.

Tests used:
GABAA α5 receptor = target: T1, GABAA α5 receptor (Rattus norvegicus, UniProt P18508+P19969); assay: GABAA α5 receptor occupancy with Ro 15-4513 tracer (hippocampus vs cerebellum); format: in vivo; details: i.v.
T1 construct: from tissue; host or cells: rat brain in vivo; hippocampus versus cerebellum
Description: Food and water were available ad libitum.

aged-impaired (AI) rats [1] = assay: Radial Arm Maze (RAM) behavioral task, spatial memory retention; format: in vivo, rat; details: four-hour delay
Description: The effects of methyl 3,5-diphenylpyridazine-4-carboxylate on the in vivo spatial memory retention of aged-impaired (AI) rats were assessed in a Radial Arm Maze (RAM) behavioral task using vehicle control and four different dosage levels of methyl 3,5-diphenylpyridazine-4-carboxylate (0.1 mg/kg, 0.3 mg/kg, 1 mg/kg and 3 mg/kg, ip). RAM behavioral tasks were performed on eight AI rats. All five treatment conditions (vehicle and four dosage levels) were tested on all eight rats.
The RAM apparatus used consisted of eight equidistantly-spaced arms. An elevated maze arm (7 cm width×75 cm length) projected from each facet of an octagonal center platform (30 cm diameter, 51.5 cm height). Clear side walls on the arms were 10 cm high and were angled at 65° to form a trough. A food well (4 cm diameter, 2 cm deep) was located at the distal end of each arm. Froot Loops™ (Kellogg Company) were used as rewards. Blocks constructed of Plexiglas™ (30 cm height×12 cm width) could be positioned to prevent entry to any arm. Numerous extra maze cues surrounding the apparatus were also provided.
The AI rats were initially subjected to a pre-training test (Chappell et al. Neuropharmacology 37: 481-487, 1998). The pre-training test consisted of a habituation phase (4 days), a training phase on the standard win-shift task (18 days) and another training phase (14 days) in which a brief delay was imposed between presentation of a subset of arms designated by the experimenter (e.g., 5 arms available and 3 arms blocked) and completion of the eight-arm win-shift task (i.e., with all eight arms available).
In the habituation phase, rats were familiarized to the maze for an 8-minute session on four consecutive days. In each of these sessions, food rewards were scattered on the RAM, initially on the center platform and arms and then progressively confined to the arms. After this habituation phase, a standard training protocol was used, in which a food pellet was located at the end of each arm. Rats received one trial each day for 18 days. Each daily trial terminated when all eight food pellets had been obtained or when either 16 choices were made or 15 minutes had elapsed. After completion of this training phase, a second training phase was carried out in which the memory demand was increased by imposing a brief delay during the trial. At the beginning of each trial, three arms of the eight-arm maze were blocked. Rats were allowed to obtain food on the five arms to which access was permitted during this initial “information phase” of the trial. Rats were then removed from the maze for 60 seconds, during which time the barriers on the maze were removed, thus allowing access to all eight arms. […]

aged-impaired (AI) rats [2] = assay: Morris water maze behavioral task, ICV infusion; format: in vivo, rat; details: 100 μg ICV
Description: The effects of 6,6 dimethyl-3-(3-hydroxypropyl)thio-1-(thiazol-2-yl)-6,7-dihydro-2-benzothiophen-4(5H)-one on the in vivo spatial memory retention of aged-impaired (AI) rats were assessed in a Morris water maze behavioral task. A water maze is a pool surrounded with a novel set of patterns relative to the maze.
Cognitively impaired aged rats were implanted unilaterally with a cannula into the lateral ventricle. Stereotaxic coordinates were 1.0 mm posterior to bregma, 1.5 mm lateral to midline, and 3.5 mm ventral to the skull surface. After about a week of recovery, the rats were pre-trained in a water maze for 2 days (6 trials per day) to locate a submerged escape platform hidden underneath the surface of the pool, in which the escape platform location varied from day to day. No intracerebroventricular (ICV) infusion was given during pre-training.
After pre-training, rats received ICV infusion of either 100 μg 6,6 dimethyl-3-(3-hydroxypropyl)thio-1-(thiazol-2-yl)-6,7-dihydro-2-benzothiophen-4(5H)-one (n=6) in 5 μl DMSO or vehicle DMSO (n=5) 40 min prior to water maze training and testing. Training consisted of 8 trials per day for 2 days where the hidden escape platform remained in the same location. Rats were given 60 seconds to locate the platform with a 60 seconds inter-trial interval. The rats were given a probe test (120 seconds) 24 hr. after the end of training where the escape platform was removed. During the training, there were 4 blocks, where each block had 4 training trials.
During a test trial 24 hr. after training, the escape platform was removed. The search/swim pattern of the rats was used to measure whether the rats remember where the escape platform was located during pre-trial training in order to test for the long-term memory of the rats. In this trial, “target annulus” is a designated area 1.5 times the size of the escape platform around the area where the platform was located during pre-trial training. “Opposite annulus” is a control area of the same size as the size of the target annulus, which is located opposite to the target annulus in the pool. If the rats had good long term memory, they would tend to search in the area surrounding the location where the platform was during the pre-trial training (i.e., the “target” annulus; and not the “opposite” annulus). “Time in annulus” is the amount of time in seconds that the rat spent in the target or opposite annulus area. “Number (#) of crossings” in annulus is the number of times the rat swam across the target or opposite annulus area.

α5β2γ2 subtype GABAAR = target: T2, α5β2γ2 subtype GABAAR (Homo sapiens, UniProt P18507+P31644); assay: Positive allosteric modulator activity: potentiation of EC20 GABA current in oocytes; format: cell-based; details: read-out: GABA α5 Functional Data (potentiation), @ 100 nM, reported as ranges
T2 construct: expressed in transfected cells
T2 sequence (P31644 32-462): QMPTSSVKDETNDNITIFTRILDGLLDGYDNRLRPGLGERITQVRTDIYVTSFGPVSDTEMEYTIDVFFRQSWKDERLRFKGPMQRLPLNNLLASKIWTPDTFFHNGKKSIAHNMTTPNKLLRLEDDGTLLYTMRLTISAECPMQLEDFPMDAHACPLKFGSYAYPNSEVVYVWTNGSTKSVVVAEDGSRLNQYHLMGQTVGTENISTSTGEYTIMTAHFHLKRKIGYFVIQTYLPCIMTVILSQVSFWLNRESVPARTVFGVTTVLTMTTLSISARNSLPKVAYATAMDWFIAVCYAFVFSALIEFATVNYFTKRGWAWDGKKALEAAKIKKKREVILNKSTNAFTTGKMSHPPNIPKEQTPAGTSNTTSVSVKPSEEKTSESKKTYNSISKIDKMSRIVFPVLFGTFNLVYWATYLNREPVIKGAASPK
T2 sequence (P47870 25-512 partner limits assumed): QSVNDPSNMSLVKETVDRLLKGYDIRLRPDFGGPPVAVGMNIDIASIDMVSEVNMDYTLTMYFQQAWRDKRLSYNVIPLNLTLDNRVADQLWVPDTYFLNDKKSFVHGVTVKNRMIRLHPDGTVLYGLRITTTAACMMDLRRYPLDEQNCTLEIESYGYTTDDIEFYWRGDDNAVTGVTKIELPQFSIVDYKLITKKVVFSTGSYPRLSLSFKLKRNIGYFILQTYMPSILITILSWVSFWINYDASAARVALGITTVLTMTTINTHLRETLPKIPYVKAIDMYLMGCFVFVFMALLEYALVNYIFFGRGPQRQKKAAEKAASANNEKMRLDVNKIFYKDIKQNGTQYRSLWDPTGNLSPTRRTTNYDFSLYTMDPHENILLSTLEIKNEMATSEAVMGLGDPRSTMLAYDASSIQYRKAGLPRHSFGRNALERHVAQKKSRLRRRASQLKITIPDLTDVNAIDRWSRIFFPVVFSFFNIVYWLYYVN
T2 sequence (P18507 40-467 limits assumed): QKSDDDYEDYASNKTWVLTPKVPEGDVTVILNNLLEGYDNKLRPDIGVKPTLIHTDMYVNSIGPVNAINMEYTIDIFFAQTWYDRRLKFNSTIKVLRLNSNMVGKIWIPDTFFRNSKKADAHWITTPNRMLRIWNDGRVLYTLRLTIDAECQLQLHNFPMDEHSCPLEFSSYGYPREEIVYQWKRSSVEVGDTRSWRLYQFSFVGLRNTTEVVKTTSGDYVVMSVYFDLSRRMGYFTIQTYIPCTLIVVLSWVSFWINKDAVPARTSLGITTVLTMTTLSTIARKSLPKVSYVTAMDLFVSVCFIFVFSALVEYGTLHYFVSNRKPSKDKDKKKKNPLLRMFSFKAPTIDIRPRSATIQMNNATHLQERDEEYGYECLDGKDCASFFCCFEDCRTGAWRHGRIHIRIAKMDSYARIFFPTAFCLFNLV
Procedure, shortened: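 Xenopus oocytes injected with 1 ng α5:β2:γ2 cDNA (1:1:10 by weight) and recorded on day 2 by two-electrode voltage clamp under MBS superfusion. Potentiation (%) = Itest/IGABA at EC20 GABA; each oocyte used for one concentration only.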

MAM-treated rats = details: cited from earlier work
[3] = probe test 24 hr. after training

T1 sequence (P19969 32-464 limits assumed): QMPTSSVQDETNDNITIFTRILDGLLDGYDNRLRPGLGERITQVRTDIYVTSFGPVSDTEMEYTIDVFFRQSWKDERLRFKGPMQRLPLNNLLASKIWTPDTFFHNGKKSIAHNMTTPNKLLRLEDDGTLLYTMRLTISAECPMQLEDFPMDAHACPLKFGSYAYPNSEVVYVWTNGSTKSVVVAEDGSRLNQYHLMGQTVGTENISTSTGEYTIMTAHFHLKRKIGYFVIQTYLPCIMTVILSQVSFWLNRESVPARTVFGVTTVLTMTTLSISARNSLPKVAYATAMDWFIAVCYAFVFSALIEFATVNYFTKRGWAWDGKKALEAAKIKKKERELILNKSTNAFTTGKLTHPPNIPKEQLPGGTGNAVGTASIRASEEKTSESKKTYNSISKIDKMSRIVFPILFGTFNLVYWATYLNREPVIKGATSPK
T1 sequence (P18508 39-466): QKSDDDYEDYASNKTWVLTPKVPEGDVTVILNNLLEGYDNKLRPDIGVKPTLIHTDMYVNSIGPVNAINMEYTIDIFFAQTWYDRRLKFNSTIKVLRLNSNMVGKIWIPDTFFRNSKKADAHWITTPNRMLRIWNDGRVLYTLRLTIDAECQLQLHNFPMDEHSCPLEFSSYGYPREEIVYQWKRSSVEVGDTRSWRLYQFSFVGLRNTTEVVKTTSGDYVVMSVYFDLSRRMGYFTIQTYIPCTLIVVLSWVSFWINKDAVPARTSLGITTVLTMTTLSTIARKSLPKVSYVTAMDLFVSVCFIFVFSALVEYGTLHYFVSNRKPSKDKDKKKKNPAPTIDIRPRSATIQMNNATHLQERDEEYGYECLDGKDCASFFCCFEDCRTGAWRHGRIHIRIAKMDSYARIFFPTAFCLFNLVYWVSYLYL

CCOC(=O)c1ncn2c1Cn1c(C)nnc1-c1cc(OC)ccc1-2
effect on Ro 15-4513 binding in hippocampus (GABAA α5 receptor; 0.01-10 mg/kg): reduced; also recorded: blocked
effect on Ro 15-4513 levels (binding) in cerebellum (GABAA α5 receptor; 0.01-10 mg/kg): without affecting; also recorded: did not affect
GABAA α5 receptor occupancy (GABAA α5 receptor; 10 mg/kg): > 90%
memory performance relative to vehicle control (aged-impaired (AI) rats [1]; 3 mg/kg, t(7)=4.13, p=0.004, or t(7)=3.08, p=0.018): significantly improved memory performance
memory performance relative to vehicle control (aged-impaired (AI) rats [1]; 10 mg/kg, p 0.026): significantly improved memory performance

CC1(C)CC(=O)c2c(SCCCO)sc(-c3nccs3)c2C1 [6,6 dimethyl-3-(3-hydroxypropyl)thio-1-(thiazol-2-yl)-6,7-dihydro-2-benzothiophen-4(5H)-one]
time to find the escape platform (aged-impaired (AI) rats [2]; beginning of training (block 1)): about 24 seconds
time to find the escape platform (aged-impaired (AI) rats [2]; end of training (block 4)): about 9.6 seconds
number of crossings of target annulus compared to opposite annulus (aged-impaired (AI) rats [2]; [3]): more often
time in target annulus compared to opposite annulus (aged-impaired (AI) rats [2]; [3]): significantly more time in the target annulus

COc1ccc2c(c1)-n1nncc1Cc1c(C#CCc3cccc(F)c3)ncn1-2 [Compound 419]
activation at 0.1 µM (α5β2γ2 subtype GABAAR): 20 to 50%

COc1ccc2c(c1)-n1nncc1Cc1c(C#CCc3ccccc3OC(F)(F)F)ncn1-2 [Compound 420]
activation at 0.1 µM (α5β2γ2 subtype GABAAR): 5 to 20%

COCc1nnc2n1Cc1c(C#CCc3cccc(F)c3)ncn1-c1ccc(Cl)cc1-2 [Compound 421]
activation at 0.1 µM (α5β2γ2 subtype GABAAR): 20 to 50%

COCc1nnc2n1Cc1c(C#CCc3cccc(Cl)c3)ncn1-c1ccc(Cl)cc1-2 [Compound 422]
activation at 0.1 µM (α5β2γ2 subtype GABAAR): 20 to 50%

COCc1nnc2n1Cc1c(C#CCc3cccc(OC(F)(F)F)c3)ncn1-c1ccc(Cl)cc1-2 [Compound 423]
activation at 0.1 µM (α5β2γ2 subtype GABAAR): 5 to 20%

CC(C)C#Cc1ccc2c(c1)-n1nncc1Cc1c(Br)ncn1-2 [Compound 454]
activation at 0.1 µM (α5β2γ2 subtype GABAAR): 5 to 20%

CCOC(=O)c1ncn2c1CN(C)C(=O)c1cc(N=[N+]=[N-])ccc1-2 [Ro 15-4513]
levels of Ro 15-4513 in hippocampus compared with cerebellum (GABAA α5 receptor; tracer 1 μg/kg, after vehicle administration): > 5 fold

C#Cc1ccc2c(c1)C(c1ccccc1F)=N[C@H](C)c1c(C(=O)OCC)ncn1-2 [SH-053-2′F—R—CH3]
number of spontaneously active DA neurons in the ventral tegmental area (VTA) (MAM-treated rats; MAM rats, systemic or infused into ventral HPC, to levels of saline-treated rats): reduces
increased locomotor response to amphetamine (MAM-treated rats; MAM-treated rats): reduced
cortical-evoked responses of HPC neurons (MAM-treated rats; saline-treated and MAM-treated animals): diminished
